# Patent US11964978B2, “Modulators of STING (stimulator of interferon genes)” (PFIZER INC., priority 2021, dated 2024)
# Columns and labels:
# [1] = test system: phosphorylation of IRF3 in THP-1 cells (STING activation); assay: Phosphorylation of IRF3: THP-1 cell ELISA; type: cell-based; conditions: Homo sapiens, 3 hours incubation, read-out: THP-1 CELL P-IRF3 EC50
# Method: Phosphorylation of IRF3: THP-1 cell ELISA
# STING activation results in recruitment of TBK1 and phosphorylation of IRF3 transcription factor before induction of type I interferons. THP-1 cells (InvivoGen) were grown in RPMI media plus 2 mM L-glutamine, 10% fetal bovine serum, and 0.5% Pen-Strep. 10^4 cells were seeded in 96-well plates and incubated overnight […]. Compounds serial diluted compounds in media (final 0.5% DMSO) were added to the cells and incubated for an additional 3 hours. After incubation, the plates were centrifuged at 2000 rpm for 5 min. The cells were then lysed in 100 μl RIPA buffer and vortexed for 30 minutes at room temperature. 25 μl of lysate was then transferred to clear polystyrene High Bind plates that had been previously coated with mouse anti-human IRF-3 capture antibody (BD Pharmigen), and allowed to incubate at 4° C. for 16 hours. The plates were then washed and incubated with rabbit anti-phospho-IRF3 detection antibody (Cell Signaling Technologies) for 1.5 hours at room temperature. Finally, an HRP-linked secondary antibody (Cell Signaling Technologies) was added for 30 min before the Glo Substrate Reagent (R&D Systems) was used generate the luminescent signal. The signal was measured using a Perkin-Elmer Envision microplate reader. Data were normalized to “% effect” with a positive control STING agonist that was known to maximize the phosphorylated IRF3 signal and the negative control was DMSO.
# [2] = test system: THP-1 Lucia ISG cells (IRF-inducible Lucia luciferase reporter); assay: Interferon-β induction: THP-1 ISG reporter cell line; type: cell-based; conditions: THP1-Lucia ISG, 24 hours incubation, read-out: THP-1 Lucia ISG Cells IFN-β EC50
# Method: Interferon-β Induction: THP-1 ISG Reporter Cell Line
# THP-1 Lucia™ ISG cells (InvivoGen) express the secreted luciferase “Lucia” reporter gene under the control of an IRF-inducible composite promotor comprised of five interferon response elements. THP-1 Lucia™ ISG cells were grown in RPMI media plus 2 mM L-glutamine, 10% fetal bovine serum, and 0.5% Pen-Strep. Hygromycin B and Zeocin were present to maintain stable transfection. 10^4 cells were seeded in 96-well plates and incubated overnight 37° C., 5% CO2. 50 μL of serial diluted compounds in media (final 0.5% DMSO) was and incubated for an additional 24 hours. After incubation, the plates were centrifuged at 2000 rpm for 10 min. 50 μl of cell culture supernatant of each well was transferred to a white, opaque 96-well plate. One pouch of QUANTI-Luc™ (InvivoGen) powder was prepared in 25 mL of endotoxin-free water and 100 μL of prepared warm QUANTI-Luc solution were added to each well containing the supernatant. The luminescence signal was measured using a Perkin-Elmer Envision microplate reader. Data were normalized to “% effect” with a positive control STING agonist that was known to maximize the luciferase signal and the negative control DMSO.
# R232-STING = R232-STING (Homo sapiens (Human), UniProt Q86WV6, H232R); conditions: read-out: R232-STING SPA-IC50 Ki; STING residues 155-341, 100 nM 3H-cGAMP; KI from IC50 with Cheng-Prusoff equation
# Chain of R232-STING (Q86WV6 155-341 H232R): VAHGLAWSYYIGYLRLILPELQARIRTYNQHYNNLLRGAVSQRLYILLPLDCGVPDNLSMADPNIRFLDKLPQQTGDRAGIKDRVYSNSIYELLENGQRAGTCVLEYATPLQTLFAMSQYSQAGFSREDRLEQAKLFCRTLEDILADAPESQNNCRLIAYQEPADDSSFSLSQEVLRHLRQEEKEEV
EC50 [1] [nM],EC50 [2] [nM],Ki (R232-STING) [nM],SMILES
> 10000,8960,135,"Cc1cc(-c2cn(C)c(-c3nc(C(N)=O)cc4c3cnn4C)n2)n(C[C@@H]2CCO2)n1 (single isomer, unassigned) [AIM02]"
> 10000,> 10000,175,"Cc1cc(-c2cn(C)c(-c3nc(C(N)=O)cc4c3cnn4C)n2)n(C[C@H]2CCO2)n1 (single isomer, unassigned) [Example AIM01]"
2090,2160,54.6,"COCCn1nc(C)cc1-c1cn(C)c(-c2nc(C(N)=O)cc3c2cnn3C)n1 [AIF02, 4-{4-[1-(2-methoxyethyl)-3-methyl-1H-pyrazol-5-yl]-1-methyl-1H-imidazol-2-yl}-1-methyl-1H-pyrazolo[4,3-c]pyridine-6-carboxamide]"
140,160,5.7,"COCCCn1nc(C)cc1-c1cn(C)c(-c2nc(C(N)=O)cc3c2cnn3C)n1 [AIF03, 4-{4-[1-(3-methoxypropyl)-3-methyl-1H-pyrazol-5-yl]-1-methyl-1H-imidazol-2-yl}-1-methyl-1H-pyrazolo[4,3-c]pyridine-6-carboxamide]"
2120,2380,23.6,"Cc1cc(-c2cn(C)c(-c3nc(C(N)=O)cc4c3cnn4C)n2)n(CC2CC2)n1 [AIF04, 4-{4-[1-(cyclopropylmethyl)-3-methyl-1H-pyrazol-5-yl]-1-methyl-1H-imidazol-2-yl}-1-methyl-1H-pyrazolo[4,3-c]pyridine-6-carboxamide]"
–,–,> 990,"Cc1cc(-c2cn(C)c(-c3nc(C(N)=O)cc4c3cnn4C)n2)n(CCC(F)(F)F)n1 [AIF05, 1-methyl-4-{1-methyl-4-[3-methyl-1-(3,3,3-trifluoropropyl)-1H-pyrazol-5-yl]-1H-imidazol-2-yl}-1H-pyrazolo[4,3-c]pyridine-6-carboxamide]"
2610,2570,18.2,"Cc1cc(-c2cn(C)c(-c3nc(C(N)=O)cc4c3cnn4C)n2)n(CC(F)(F)F)n1 [AIF06, 1-methyl-4-{1-methyl-4-[3-methyl-1-(2,2,2-trifluoroethyl)-1H-pyrazol-5-yl]-1H-imidazol-2-yl}-1H-pyrazolo[4,3-c]pyridine-6-carboxamide]"
310,200,2,"CCn1nc(C)c(O)c1-c1cn(C)c(-c2nc(C(N)=O)cc3c2cnn3C)n1 [AIF07, 4-[4-(1-ethyl-4-hydroxy-3-methyl-1H-pyrazol-5-yl)-1-methyl-1H-imidazol-2-yl]-1-methyl-1H-pyrazolo[4,3-c]pyridine-6-carboxamide]"
–,–,> 990,"CCn1nc(C)c(Cl)c1-c1cn(C)c(-c2nc(C(N)=O)cc3c2cnn3C)n1 [AIF08, 4-[4-(4-chloro-1-ethyl-3-methyl-1H-pyrazol-5-yl)-1-methyl-1H-imidazol-2-yl]-1-methyl-1H-pyrazolo[4,3-c]pyridine-6-carboxamide]"
–,–,> 990,"CCn1nc(C(F)(F)F)cc1-c1cn(C)c(-c2nc(C(N)=O)cc3c2cnn3C)n1 [AIF09, 4-{4-[1-ethyl-3-(trifluoromethyl)-1H-pyrazol-5-yl]-1-methyl-1H-imidazol-2-yl}-1-methyl-1H-pyrazolo[4,3-c]pyridine-6-carboxamide]"
70,30,1.3,"COCCCn1nc(C)c(O)c1-c1cn(C)c(-c2nc(C(N)=O)cc3c2cnn3C)n1 [AIF10, 4-{4-[4-hydroxy-1-(3-methoxypropyl)-3-methyl-1H-pyrazol-5-yl]-1-methyl-1H-imidazol-2-yl}-1-methyl-1H-pyrazolo[4,3-c]pyridine-6-carboxamide]"
–,–,352,"CCc1nn(C)cc1-c1cn(C)c(-c2nc(C(N)=O)cc3c2cnn3C)n1 [AIH01, 4-[4-(3-ethyl-1-methyl-1H-pyrazol-4-yl)-1-methyl-1H-imidazol-2-yl]-1-methyl-1H-pyrazolo[4,3-c]pyridine-6-carboxamide]"
–,–,> 990,CCn1nc(C)cc1-c1cn(Cc2ccccc2)c(-c2nc(C(N)=O)cc3c2cnn3C)n1 [AIP03]

# Continued, molecule first:
SMILES,EC50 [1] [nM],EC50 [2] [nM],Ki (R232-STING) [nM]
"CCn1cc(-c2cc(C)nn2CC)nc1-c1nc(C(N)=O)cc2c1cnn2C [AIA02, 4-[1-ethyl-4-(1-ethyl-3-methyl-1H-pyrazol-5-yl)-1H-imidazol-2-yl]-1-methyl-1H-pyrazolo[4,3-c]pyridine-6-carboxamide]",800,770,18
"CCn1nc(C)cc1-c1cn(C(C)C)c(-c2nc(C(N)=O)cc3c2cnn3C)n1 [AIA03, 4-[4-(1-ethyl-3-methyl-1H-pyrazol-5-yl)-1-(propan-2-yl)-1H-imidazol-2-yl]-1-methyl-1H-pyrazolo[4,3-c]pyridine-6-carboxamide]",4890,4530,71.4
"CCn1nc(C)cc1-c1cn(CC(F)F)c(-c2nc(C(N)=O)cc3c2cnn3C)n1 [AIA04, 4-[1-(2,2-difluoroethyl)-4-(1-ethyl-3-methyl-1H-pyrazol-5-yl)-1H-imidazol-2-yl]-1-methyl-1H-pyrazolo[4,3-c]pyridine-6-carboxamide]",1260,1310,33.8
"CCn1nc(C)cc1-c1cn(C)c(-c2nc(C(N)=O)cc3c2ccn3C)n1 [AIC02, 4-[4-(1-ethyl-3-methyl-1H-pyrazol-5-yl)-1-methyl-1H-imidazol-2-yl]-1-methyl-1H-pyrrolo[3,2-c]pyridine-6-carboxamide]",> 10000,> 10000,113
"CCn1ncc2c(-c3nc(-c4cc(C)nn4CCCOC)cn3C)nc(C(N)=O)cc21 [AIC03, 1-ethyl-4-{4-[1-(3-methoxypropyl)-3-methyl-1H-pyrazol-5-yl]-1-methyl-1H-imidazol-2-yl}-1H-pyrazolo[4,3-c]pyridine-6-carboxamide]",650,700,7.8
"CCn1cc(-c2cc(C)nn2CCCO)nc1-c1nc(C(N)=O)cc2c1cnn2C [AIE02, 4-{1-ethyl-4-[1-(3-hydroxypropyl)-3-methyl-1H-pyrazol-5-yl]-1H-imidazol-2-yl}-1-methyl-1H-pyrazolo[4,3-c]pyridine-6-carboxamide]",200,270,12.7
"Cc1cc(-c2cn(C)c(-c3nc(C(N)=O)cc4c3cnn4C)n2)n(CCCCCO)n1 [AIE03, 4-{4-[1-(5-hydroxypentyl)-3-methyl-1H-pyrazol-5-yl]-1-methyl-1H-imidazol-2-yl}-1-methyl-1H-pyrazolo[4,3-c]pyridine-6-carboxamide]",310,310,10.7
"Cc1cc(-c2cn(C)c(-c3nc(C(N)=O)cc4c3cnn4C)n2)n(CCCCO)n1 [AIE04, 4-{4-[1-(4-hydroxybutyl)-3-methyl-1H-pyrazol-5-yl]-1-methyl-1H-imidazol-2-yl}-1-methyl-1H-pyrazolo[4,3-c]pyridine-6-carboxamide]",690,740,13.7
"CCn1nc(C)cc1-c1cn(C2CC2)c(-c2nc(C(N)=O)cc3c2cnn3C)n1 [Example AIB01, 4-[1-cyclopropyl-4-(1-ethyl-3-methyl-1H-pyrazol-5-yl)-1H-imidazol-2-yl]-1-methyl-1H-pyrazolo[4,3-c]pyridine-6-carboxamide]",–,–,257
